Test results published in the supplement of paper PMC10307832.

Assays:
Assay in all cases: relative viability (nuclei count vs DMSO), 5 days (fraction); higher = more cells survive
[1] = compound: C/C(=N\NC(=S)N1CCC1)/C2=CC=CC=N2 + O=C(CCCCCCC(=O)Nc1ccccc1)NO [Vorinostat] (partner 1 µM)
In short: (§1)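 A single step with final 0.05% Triton X-100, 1% formaldehyde and 1 ug/ml Hoechst fixed the cells and stained nuclei 5 days after treatment. Lung cancer cell lines in 1536-well plates had been treated by pin tool the day after seeding with one drug alone or a fixed anchor-drug dose plus five library-drug doses (not always all listed) in √10 steps, and nuclei were counted on 4× images. Relative viability is the ratio of nuclei in treated wells to nuclei in vehicle wells, taken as the median of duplicate plates.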

[2] = compound: C/C(=N\NC(=S)N1CCC1)/C2=CC=CC=N2 + C[C@]1(O)C[C@@H](c2nc(-c3ccc4ccc(-c5ccccc5)nc4c3)c3c(N)nccn32)C1 [Linsitinib] (partner 1 µM)
In short: as §1

[3] = compound: C/C(=N\NC(=S)N1CCC1)/C2=CC=CC=N2 + CC1(C)CCC(c2ccc(Cl)cc2)=C(CN2CCN(c3ccc(C(=O)NS(=O)(=O)c4ccc(N[C@H](CCN5CCOCC5)CSc5ccccc5)c(S(=O)(=O)C(F)(F)F)c4)cc3)CC2)C1 [Navitoclax] (partner 0.5 µM)
In short: as §1

[4] = compound: C/C(=N\NC(=S)N1CCC1)/C2=CC=CC=N2 + Cc1nc(NC(=O)N2CCC[C@H]2C(N)=O)sc1-c1ccnc(C(C)(C)C(F)(F)F)c1 [Alpelisib] (partner 2 µM)
In short: as §1

| Cell Line | relative viability ([1]; first compound 0.05 µM) | relative viability ([1]; first compound 0.1581 µM) | relative viability ([1]; first compound 0.5 µM) | relative viability ([1]; first compound 1.581 µM) | relative viability ([1]; first compound 5 µM) | relative viability ([2]; first compound 0.05 µM) | relative viability ([2]; first compound 0.1581 µM) | relative viability ([2]; first compound 0.5 µM) | relative viability ([2]; first compound 1.581 µM) | relative viability ([2]; first compound 5 µM) | relative viability ([3]; first compound 0.05 µM) | relative viability ([3]; first compound 0.1581 µM) | relative viability ([3]; first compound 0.5 µM) | relative viability ([3]; first compound 1.581 µM) | relative viability ([3]; first compound 5 µM) | relative viability ([4]; first compound 0.05 µM) | relative viability ([4]; first compound 0.1581 µM) | relative viability ([4]; first compound 0.5 µM) | relative viability ([4]; first compound 1.581 µM) | relative viability ([4]; first compound 5 µM) |
| --- | --- | --- | --- | --- | --- | --- | --- | --- | --- | --- | --- | --- | --- | --- | --- | --- | --- | --- | --- | --- |
| NCI-H1793 | 0.189 | 0.139 | 0.127 | 0.124 | 0.133 | 0.22 | 0.233 | 0.132 | 0.142 | 0.167 | 0.225 | 0.208 | 0.19 | 0.149 | 0.225 | 0.245 | 0.179 | 0.169 | 0.168 | 0.191 |
| NCI-H1395 | 0.302 | 0.405 | 0.31 | 0.312 | 0.339 | 0.374 | 0.336 | 0.307 | 0.353 | 0.36 | 0.4 | 0.346 | 0.365 | 0.338 | 0.352 | 0.4 | 0.354 | 0.423 | 0.354 | 0.463 |
| HCC-827 | 0.251 | 0.214 | 0.18 | 0.233 | 0.149 | 0.716 | 0.968 | 0.338 | 0.3 | 0.187 | 0.639 | 1.02 | 0.308 | 0.273 | 0.241 | 0.556 | 1.01 | 0.264 | 0.279 | 0.186 |
| NCI-H2228 | 0.231 | 0.15 | 0.166 | 0.156 | 0.145 | 0.179 | 0.273 | 0.233 | 0.144 | 0.213 | 0.181 | 0.132 | 0.13 | 0.117 | 0.123 | 0.154 | 0.18 | 0.227 | 0.124 | 0.147 |
| EMC-BAC-2 | 0.193 | 0.199 | 0.134 | 0.153 | 0.135 | 0.365 | 0.56 | 0.144 | 0.178 | 0.191 | 0.25 | 0.645 | 0.162 | 0.21 | 0.168 | 0.288 | 0.426 | 0.122 | 0.163 | 0.152 |
| NCI-H23 | 0.15 | 0.11 | 0.124 | 0.0929 | 0.102 | 0.134 | 0.196 | 0.13 | 0.124 | 0.151 | 0.139 | 0.186 | 0.117 | 0.135 | 0.171 | 0.128 | 0.148 | 0.141 | 0.128 | 0.155 |
| RERF-LC-KJ | 0.214 | 0.207 | 0.19 | 0.21 | 0.208 | 0.233 | 0.253 | 0.227 | 0.243 | 0.229 | 0.184 | 0.266 | 0.245 | 0.159 | 0.227 | 0.212 | 0.234 | 0.23 | 0.205 | 0.256 |
| LC-2-ad | 0.197 | 0.172 | 0.191 | 0.185 | 0.17 | 0.131 | 0.155 | 0.11 | 0.099 | 0.146 | 0.0933 | 0.0992 | 0.0713 | 0.0966 | 0.121 | 0.126 | 0.109 | 0.107 | 0.104 | 0.0953 |
